Data taken from ChEMBL document CHEMBL5154799, “Discovery of a Novel Stilbene Derivative as a Microtubule Targeting Agent Capable of Inducing Cell Ferroptosis” (J Med Chem, 2022).
Structures can show the parent of a compound that is named as a salt. Activity calls are given as the source filed them. The rule behind the calls is not given here.

Columns and labels:
[1] = tested on: A549; test: Induction of apoptosis in human A549 cells assessed as cell viability pretreated with ferroptosis inhibitor desferoxamine for 24 hrs followed by incubation with compound at 200 nM and measured after 48 hrs by CCK-8 assay; format: functional, cell-based
[2] = tested on: MCF7; test: Antiproliferative activity against human MCF7 cells assessed as cell viability incubated for 48 hrs by MTT assay; format: functional, cell-based; settings: MCF7, 48 h
[3] = tested on: HeLa; test: Antiproliferative activity against human HeLa cells assessed as cell viability incubated for 48 hrs by MTT assay; format: functional, cell-based
[4] = tested on: A549; test: Induction of apoptosis in human A549 cells assessed as cell viability pretreated with caspase inhibitor Z-VAD-FMK for 24 hrs followed by incubation with compound at 200 nM and measured after 48 hrs by CCK-8 assay; format: functional, cell-based
[5] = tested on: A549; test: Induction of apoptosis in human A549 cells assessed as cell viability pretreated with autophagy inhibitor 3-methyladenine for 24 hrs followed by incubation with compound at 200 nM and measured after 48 hrs by CCK-8 assay; format: functional, cell-based
[6] = tested on: A549; test: Induction of apoptosis in human A549 cells assessed as cell viability pretreated with ferroptosis inhibitor ferrostatin-1 for 24 hrs followed by incubation with compound at 200 nM and measured after 48 hrs by CCK-8 assay; format: functional, cell-based
[7] = tested on: A549; test: Antiproliferative activity against human A549 cells assessed as cell viability incubated for 48 hrs by MTT assay; format: functional, cell-based; settings: A549, 48 h
[8] = tested on: A549; test: Induction of apoptosis in human A549 cells assessed as cell viability pretreated with necroptosis inhibitor necrostatin-I for 24 hrs followed by incubation with compound at 200 nM and measured after 48 hrs by CCK-8 assay; format: functional, cell-based
[9] = tested on: A2780; test: Antiproliferative activity against human A2780 cells assessed as cell viability incubated for 48 hrs by MTT assay; format: functional, cell-based; settings: A2780, 48 h
[10] = tested on: HCT-8; test: Antiproliferative activity against human HCT-8 cells assessed as cell viability incubated for 48 hrs by MTT assay; format: functional, cell-based; settings: HCT-8, 48 h
[11] = tested on: A549; test: Antiproliferative activity against human adriamycin-resistant A549/ADR cells assessed as cell viability incubated for 48 hrs by MTT assay; format: functional, cell-based; settings: A549, 48 h
[12] = tested on: HCT-8; test: Antiproliferative activity against human vincristine-resistant HCT-8/VCR cells assessed as cell viability incubated for 48 hrs by MTT assay; format: functional, cell-based; settings: HCT-8, 48 h
[13] = tested on: A2780; test: Antiproliferative activity against human paclitaxel-resistant A2780/TAX cells assessed as cell viability incubated for 48 hrs by MTT assay; format: functional, cell-based; settings: A2780, 48 h
[14] = tested on: A549; test: Induction of apoptosis in human A549 cells assessed as cell rounding incubated for 24 hrs […]; format: functional, cell-based
[15] = tested on: A549; test: Induction of cell death in human A549 cells assessed as increased mitochondrial membrane density at 200 nM for 12 hrs by TEM analysis; format: functional, cell-based
[16] = tested on: A549; test: Induction of apoptosis in human A549 cells assessed as nucleic fragmentation incubated for 24 hrs by CCK-8 assay; format: functional, cell-based
[17] = target: Tubulin; test: Inhibition of [3H]colchicine binding to tubulin (unknown origin) by competitive binding assay; format: protein-complex assay, Homo sapiens
[18] = tested on: A549; test: Induction of apoptosis in human A549 cells assessed as chromatin condensation incubated for 24 hrs by CCK-8 assay; format: functional, cell-based
[19] = tested on: A549; test: Induction of cell death in human A549 cells assessed as vanished mitochondrial cristae at 200 nM for 12 hrs by TEM analysis; format: functional, cell-based
[20] = target: Tubulin; test: Inhibition of tubulin polymerization (unknown origin) assessed as fluorescence intensity emission at 410 nm for 60 mins; format: protein-complex assay, Homo sapiens
[21] = tested on: A549; test: Induction of apoptosis in human A549 cells assessed as apoptotic body formation incubated for 24 hrs […]; format: functional, cell-based
[22] = tested on: A549; test: Induction of apoptosis in human A549 cells assessed as cell viability pretreated with ferroptosis inhibitor ferrostatin-1 for 24 hrs followed by incubation with compound at 100 nM and measured after 48 hrs by CCK-8 assay; format: functional, cell-based
[23] = tested on: A549; test: Induction of apoptosis in human A549 cells assessed as cell viability pretreated with ferroptosis inhibitor desferoxamine for 24 hrs followed by incubation with compound at 100 nM and measured after 48 hrs by CCK-8 assay; format: functional, cell-based
[24] = tested on: A549; test: Induction of apoptosis in human A549 cells assessed as cell viability pretreated with caspase inhibitor Z-VAD-FMK for 24 hrs followed by incubation with compound at 100 nM and measured after 48 hrs by CCK-8 assay; format: functional, cell-based
[25] = tested on: A549; test: Induction of apoptosis in human A549 cells assessed as early apoptotic cells at 50 nM incubated for 24 hrs by annexin V-FITC/PI staining based flow cytometry analysis; format: functional, cell-based
[26] = tested on: A549; test: Induction of apoptosis in human A549 cells assessed as cell viability pretreated with autophagy inhibitor 3-methyladenine for 24 hrs followed by incubation with compound at 100 nM and measured after 48 hrs by CCK-8 assay; format: functional, cell-based
[27] = tested on: A549; test: Induction of apoptosis in human A549 cells assessed as cell viability pretreated with necroptosis inhibitor necrostatin-I for 24 hrs followed by incubation with compound at 100 nM and measured after 48 hrs by CCK-8 assay; format: functional, cell-based
[28] = Resistance index, ratio of IC50 for antiproliferative activity against human paclitaxel-resistant A2780/TAX cells to IC50 for antiproliferative activity against human A2780 cells; format: functional
[29] = tested on: A549; test: Resistance index, ratio of IC50 for antiproliferative activity against human adriamycin-resistant A549/ADR cells to IC50 for antiproliferative activity against human A549 cells; format: functional
[30] = Resistance index, ratio of IC50 for antiproliferative activity against human vincristine-resistant HCT-8/VCR cells to IC50 for antiproliferative activity against HCT-8 cells; format: functional
[31] = tested on: A549; test: Induction of lipid […] accumulation in human A549 cells at 100 nM incubated for 24 hrs by C11-BODIPY-581/591 staining based flow cytometry analysis; format: functional, cell-based
[32] = tested on: A549; test: In vivo antitumor activity against human A549 cells xenografted in athymic nude BALB/c mouse assessed as tumor volume at 10 mg/kg measured after 30 days (reference value: 1503.3 mm^3); format: functional; settings: time 30 day
[33] = tested on: A549; test: In vivo antitumor activity against human A549 cells xenografted in athymic nude BALB/c mouse assessed as tumor growth inhibition at 10 mg/kg measured after 30 days relative to control; format: functional; settings: A549, 720 h, time 30 day, read-out: TGI
[34] = tested on: A549; test: Induction of cell death in human A549 cells assessed as increased mitochondrial membrane density at 10 uM for 12 hrs by TEM analysis; format: functional, cell-based
[35] = tested on: A549; test: In vivo antitumor activity against human A549 cells xenografted in athymic nude BALB/c mouse assessed as tumor weight at 10 mg/kg measured after 30 days (reference value: 1 gram); format: functional; settings: time 30 day
[36] = tested on: A549; test: Induction of cell death in human A549 cells assessed as vanished mitochondrial cristae at 10 uM for 12 hrs by TEM analysis; format: functional, cell-based
[37] = tested on: A549; test: Induction of ferroptosis in human A549 cells assessed as depletion of GSH levels at 10 uM upto 12 hrs; format: functional, cell-based

Row | SMILES | IC50 [2] | IC50 [3] | IC50 [7] | IC50 [9] | IC50 [10] | also measured
1 | C=C(c1cc(OC)c(OC)c(OC)c1)c1ccc(OC)c(O)c1NC(=O)COC | 0.56 µM | 0.33 µM | 0.19 µM | 0.45 µM | 0.28 µM | Activity [1]: Active; Activity [4]: Active; Activity [5]: Active; Activity [6]: Active; Activity [8]: Active
2 | COc1cccc2c1C(=O)c1c(O)c3c(c(O)c1C2=O)C[C@@](O)(C(=O)CO)C[C@@H]3O[C@H]1C[C@H](N)[C@H](O)[C@H](C)O1 [DOXORUBICIN HYDROCHLORIDE] | – | – | – | 2.03 µM | 3.98 µM | IC50 [11]: 12.5 µM; IC50 [12]: 21.6 µM; IC50 [13]: 2.69 µM
3 | CC(=O)O[C@H]1C(=O)[C@@]2(C)[C@H]([C@H](OC(=O)c3ccccc3)[C@]3(O)C[C@H](OC(=O)[C@H](O)[C@@H](NC(=O)c4ccccc4)c4ccccc4)C(C)=C1C3(C)C)[C@]1(OC(C)=O)CO[C@@H]1C[C@@H]2O [PACLITAXEL] | – | – | 0.03 µM | – | 0.02 µM | IC50 [11]: 0.07 µM; IC50 [12]: 0.13 µM
4 | COc1ccc(C(=O)c2cc(OC)c(OC)c(OC)c2)cc1O [PHENSTATIN] | 0.96 µM | 0.22 µM | – | 0.11 µM | 0.36 µM | Activity [14]: Active; Activity [15]: Active; Activity [16]: Active; IC50 [17]: 3.03 µM; Activity [18]: Active; Activity [19]: Active; IC50 [20]: 2.94 µM; Activity [21]: Active
5 | COc1ccc(C(=O)c2cc(OC)c(OC)c(OC)c2)c(NC(=O)CO)c1 | 0.23 µM | 0.07 µM | 0.07 µM | 0.1 µM | 0.12 µM | Activity [22]: Active; Activity [23]: Active; Activity [24]: Active; Activity [25]: Active; Activity [26]: Active; Activity [27]: Active
6 | COc1ccc(C(=O)c2ccc(OC)c3c2OC(C)(C)C=C3)c(NC(=O)CO)c1 | 0.32 µM | 0.1 µM | 0.08 µM | 0.1 µM | 0.23 µM | Activity [22]: Active; Activity [23]: Active; Activity [24]: Active; Activity [25]: Active; Activity [26]: Active; Activity [27]: Active
7 | CC[C@]1(O)C[C@H]2CN(CCc3c([nH]c4ccccc34)[C@@](C(=O)OC)(c3cc4c(cc3OC)N(C=O)[C@H]3[C@@](O)(C(=O)OC)[C@H](OC(C)=O)[C@]5(CC)C=CCN6CC[C@]43[C@@H]65)C2)C1 [VINCRISTINE] | – | – | 0.06 µM | 0.03 µM | 0.35 µM | Ratio IC50 [28]: 5.67; IC50 [11]: 0.56 µM; IC50 [12]: 7.86 µM; Ratio IC50 [29]: 9.33; IC50 [13]: 0.17 µM; Ratio IC50 [30]: 22.46
8 | C=C(c1ccc(OC)cc1NC(=O)CO)c1ccc(OC)c2c1OC(C)(C)C=C2 | 0.1 µM | 0.04 µM | 0.04 µM | 0.04 µM | 0.13 µM | Activity [22]: Active; Activity [31]: Active; Activity [23]: Active; Activity [24]: Active; Activity [26]: Active; Activity [27]: Active
9 | CCOc1ccccc1-n1c(C(C)N2CCN(C(=O)COc3ccc(Cl)cc3)CC2)nc2ccccc2c1=O (centres undefined) [ERASTIN] | – | – | – | – | – | Activity [32]: 1339.4 mm3; inhibition in vivo at 10 mg/kg [33]: 10.9%; Activity [34]: Active; Activity [35]: 0.89 g; Activity [36]: Active; Activity [37]: Active
10 | C=C(c1cc(OC)c(OC)c(OC)c1)c1ccc(OC)c(O)c1NC(C)=O | 0.27 µM | 0.09 µM | 0.08 µM | 0.17 µM | 0.34 µM | Activity [22]: Active; Activity [23]: Active; Activity [24]: Active; Activity [26]: Active; Activity [27]: Active
11 | CCNCC(=O)Nc1cc(OC)ccc1C(=O)c1ccc2c(c1)C=CC(C)(C)O2 | 6.31 µM | 3.11 µM | 1.3 µM | 2.07 µM | 3.99 µM | –
12 | COc1ccc(C(=O)c2cc(OC)c(OC)c(OC)c2)c(NC(=O)CN)c1 | 0.27 µM | 0.13 µM | 0.22 µM | 0.19 µM | 0.33 µM | –
13 | C=C(c1cc(OC)c(OC)c(OC)c1)c1ccc(OC)cc1NC(=O)CO | 0.11 µM | 0.03 µM | 0.02 µM | 0.03 µM | 0.04 µM | –
14 | C=C(c1ccc(OC)cc1NC(=O)CN(C)C)c1ccc(OC)c2c1C=CC(C)(C)O2 | 2.58 µM | 0.79 µM | 0.55 µM | 0.67 µM | 1.92 µM | –
15 | C=C(c1ccc2c(c1)C=CC(C)(C)O2)c1ccc(OC)cc1NC(=O)CO | 0.39 µM | 0.1 µM | 0.04 µM | 0.11 µM | 0.22 µM | –
16 | CNCC(=O)Nc1cc(OC)ccc1C(=O)c1cc(OC)c(OC)c(OC)c1 | 0.55 µM | 0.69 µM | 0.61 µM | 0.58 µM | 0.78 µM | –
17 | COc1ccc(C(=O)c2cc(OC)c(OC)c(OC)c2)c(NC(=O)CN(C)C)c1 | 0.79 µM | 0.47 µM | 0.59 µM | 0.58 µM | 0.79 µM | –
